The text below walks through data of ChEMBL document CHEMBL1154805, “Alternaramide, a cyclic depsipeptide from the marine-derived fungus Alternaria sp. SF-5016” (2009).

The source made the active and inactive calls. The calls are words filed in the database; no cut-off is given here.

The term inhibition denotes the relative decrease from the control value, in per cent.

In test [1] the target is T1, Tyrosine-protein phosphatase non-receptor type 1 (Homo sapiens) (UniProt P18031).
T1 sequence (whole entry): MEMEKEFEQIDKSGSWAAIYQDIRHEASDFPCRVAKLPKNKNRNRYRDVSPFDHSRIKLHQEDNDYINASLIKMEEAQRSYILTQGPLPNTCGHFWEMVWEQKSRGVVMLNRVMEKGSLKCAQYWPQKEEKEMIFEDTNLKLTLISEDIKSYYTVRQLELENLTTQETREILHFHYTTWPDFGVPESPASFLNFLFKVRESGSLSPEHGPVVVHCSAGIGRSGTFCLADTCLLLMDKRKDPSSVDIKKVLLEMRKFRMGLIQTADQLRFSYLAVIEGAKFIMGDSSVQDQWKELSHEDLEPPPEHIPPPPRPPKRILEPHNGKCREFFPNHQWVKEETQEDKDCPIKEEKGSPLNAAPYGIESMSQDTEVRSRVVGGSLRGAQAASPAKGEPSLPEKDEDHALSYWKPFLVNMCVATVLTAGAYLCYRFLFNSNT
Put plainly: Inhibition of human recombinant PTP1B assessed as p-nitrophenol release at 150 ug/ml after 30 mins by spectrophotometry.

In test [2] the test system is Bacillus subtilis. Put plainly: Antibacterial activity against Bacillus subtilis KCTC 1021 at 400 ug/disk after 48 hrs by disk diffusion method. The format is functional. As to conditions: KCTC 1021, 48 h, read-out: IZ. (Agar diffusion results depend on both activity and mobility in agar.)
The test system of the next test is Candida albicans. Put plainly: Antifungal activity against Candida albicans KCTC 7965 at 400 ug/disk after 48 hrs by disk diffusion method. The format is functional, organism-based.
Test [3] relates to Staphylococcus aureus. The test can be described thus: Antibacterial activity against Staphylococcus aureus KCTC 1928 at 400 ug/disk after 48 hrs by disk diffusion method. The format is functional. The settings on record: KCTC 1928, 48 h, read-out: IZ.
The subject of a further test is Proteus vulgaris. The test can be described thus: Antibacterial activity against Proteus vulgaris KACC 12674 at 400 ug/disk after 48 hrs by disk diffusion method. Format: functional, organism-based.
The test system of the next test is Cryptococcus neoformans. Put plainly: Antifungal activity against Filobasidiella neoformans KCTC 7003 at 400 ug/disk after 48 hrs by disk diffusion method. Format: functional, organism-based.
Test [4] has as its system Bacillus subtilis. Put plainly: Antibacterial activity against Bacillus subtilis KCTC 1021 at 5 ug/disk after 48 hrs by disk diffusion method. The format is functional, organism-based.
The subject of test [5] is Staphylococcus aureus. Put plainly: Antibacterial activity against Staphylococcus aureus KCTC 1928 at 50 ug/disk after 48 hrs by disk diffusion method. Format: functional, organism-based.

As for `CC(C)[C@@H]1OC(=O)[C@@H]2CCCN2C(=O)[C@@H](Cc2ccccc2)NC(=O)[C@@H]2CCCN2C(=O)[C@@H](Cc2ccccc2)NC1=O` [ALTERNARAMIDE], the inhibition in test [1] was found to be 49%. Besides, the zone of inhibition at 400 µg/disc was 8 mm in the test on Bacillus subtilis [2] and 13 mm with Staphylococcus aureus [3]. Also, the outcome in the test with Candida albicans, in the test on Proteus vulgaris and in the test on Cryptococcus neoformans was inactive.
With GENTAMICIN, the inhibition zone (IZ) in the test on Bacillus subtilis [4] stood at 16 mm; with Staphylococcus aureus [5], 13 mm.
